Measurements as given in article PMC4808398 (Cell, 2016).

Experiments:
[1] = biological target: CASTOR1 homodimer-GATOR2 complex (Homo sapiens, UniProt Q8WTX7); type: binding
[2] = biological target: CASTOR1-CASTOR2 heterodimer-GATOR2 complex (Homo sapiens, UniProt Q8WTX7); type: binding

Chain of CASTOR1 homodimer-GATOR2 complex (Q8WTX7 whole entry): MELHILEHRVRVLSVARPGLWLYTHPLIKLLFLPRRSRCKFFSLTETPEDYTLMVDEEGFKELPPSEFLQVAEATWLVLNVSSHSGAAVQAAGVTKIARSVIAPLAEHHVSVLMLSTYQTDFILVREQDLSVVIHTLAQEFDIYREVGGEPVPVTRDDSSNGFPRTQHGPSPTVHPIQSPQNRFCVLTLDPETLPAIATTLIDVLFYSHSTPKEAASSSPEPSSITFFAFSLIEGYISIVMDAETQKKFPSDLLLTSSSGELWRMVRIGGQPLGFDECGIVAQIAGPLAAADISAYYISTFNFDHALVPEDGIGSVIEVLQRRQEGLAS
Chain of CASTOR1 homodimer-GATOR2 complex (Q9NXC5 whole entry partner): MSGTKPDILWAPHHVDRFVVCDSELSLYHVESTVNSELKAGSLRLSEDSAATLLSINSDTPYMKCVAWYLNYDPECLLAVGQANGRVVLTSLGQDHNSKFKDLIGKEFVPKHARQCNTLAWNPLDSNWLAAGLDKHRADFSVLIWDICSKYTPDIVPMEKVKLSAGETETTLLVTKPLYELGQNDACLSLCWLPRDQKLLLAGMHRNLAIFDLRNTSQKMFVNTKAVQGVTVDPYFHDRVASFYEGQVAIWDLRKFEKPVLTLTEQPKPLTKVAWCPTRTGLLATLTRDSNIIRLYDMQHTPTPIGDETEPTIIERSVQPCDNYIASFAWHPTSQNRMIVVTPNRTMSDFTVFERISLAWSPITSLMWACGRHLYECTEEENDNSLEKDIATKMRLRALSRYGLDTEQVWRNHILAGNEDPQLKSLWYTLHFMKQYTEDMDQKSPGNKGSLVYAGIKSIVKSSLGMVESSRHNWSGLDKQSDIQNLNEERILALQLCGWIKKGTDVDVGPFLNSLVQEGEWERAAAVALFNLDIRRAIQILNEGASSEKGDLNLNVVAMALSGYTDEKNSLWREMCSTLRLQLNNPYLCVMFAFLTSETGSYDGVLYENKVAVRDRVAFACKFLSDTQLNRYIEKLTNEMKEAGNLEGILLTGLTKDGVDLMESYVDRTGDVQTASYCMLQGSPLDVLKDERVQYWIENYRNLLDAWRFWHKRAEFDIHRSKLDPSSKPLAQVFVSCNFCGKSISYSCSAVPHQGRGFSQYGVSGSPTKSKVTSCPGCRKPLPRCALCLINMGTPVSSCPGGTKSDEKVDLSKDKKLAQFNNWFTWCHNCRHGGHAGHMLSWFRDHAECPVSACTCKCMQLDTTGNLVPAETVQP
Chain of CASTOR1 homodimer-GATOR2 complex (Q96S15 whole entry partner): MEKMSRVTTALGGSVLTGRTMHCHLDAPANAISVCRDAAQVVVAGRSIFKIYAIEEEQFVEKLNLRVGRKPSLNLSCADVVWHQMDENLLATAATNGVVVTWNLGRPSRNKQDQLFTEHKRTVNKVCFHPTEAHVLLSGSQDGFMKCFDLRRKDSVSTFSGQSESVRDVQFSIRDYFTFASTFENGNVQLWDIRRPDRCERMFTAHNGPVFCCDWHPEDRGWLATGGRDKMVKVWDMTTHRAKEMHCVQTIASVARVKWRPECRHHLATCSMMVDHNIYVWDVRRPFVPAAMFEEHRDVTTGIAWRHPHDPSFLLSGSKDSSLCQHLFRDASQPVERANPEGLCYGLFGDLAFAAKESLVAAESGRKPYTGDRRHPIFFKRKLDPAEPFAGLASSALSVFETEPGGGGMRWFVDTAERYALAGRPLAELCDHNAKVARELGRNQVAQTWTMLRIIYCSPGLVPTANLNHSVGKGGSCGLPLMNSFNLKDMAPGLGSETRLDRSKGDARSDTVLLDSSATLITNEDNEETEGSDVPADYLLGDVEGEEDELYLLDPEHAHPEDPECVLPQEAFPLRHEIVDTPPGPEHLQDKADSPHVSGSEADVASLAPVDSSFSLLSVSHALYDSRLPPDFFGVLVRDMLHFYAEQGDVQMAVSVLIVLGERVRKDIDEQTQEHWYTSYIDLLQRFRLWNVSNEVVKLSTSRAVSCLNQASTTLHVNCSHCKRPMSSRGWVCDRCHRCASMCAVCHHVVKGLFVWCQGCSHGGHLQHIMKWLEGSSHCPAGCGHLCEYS
Chain of CASTOR1 homodimer-GATOR2 complex (Q6PJI9 whole entry partner): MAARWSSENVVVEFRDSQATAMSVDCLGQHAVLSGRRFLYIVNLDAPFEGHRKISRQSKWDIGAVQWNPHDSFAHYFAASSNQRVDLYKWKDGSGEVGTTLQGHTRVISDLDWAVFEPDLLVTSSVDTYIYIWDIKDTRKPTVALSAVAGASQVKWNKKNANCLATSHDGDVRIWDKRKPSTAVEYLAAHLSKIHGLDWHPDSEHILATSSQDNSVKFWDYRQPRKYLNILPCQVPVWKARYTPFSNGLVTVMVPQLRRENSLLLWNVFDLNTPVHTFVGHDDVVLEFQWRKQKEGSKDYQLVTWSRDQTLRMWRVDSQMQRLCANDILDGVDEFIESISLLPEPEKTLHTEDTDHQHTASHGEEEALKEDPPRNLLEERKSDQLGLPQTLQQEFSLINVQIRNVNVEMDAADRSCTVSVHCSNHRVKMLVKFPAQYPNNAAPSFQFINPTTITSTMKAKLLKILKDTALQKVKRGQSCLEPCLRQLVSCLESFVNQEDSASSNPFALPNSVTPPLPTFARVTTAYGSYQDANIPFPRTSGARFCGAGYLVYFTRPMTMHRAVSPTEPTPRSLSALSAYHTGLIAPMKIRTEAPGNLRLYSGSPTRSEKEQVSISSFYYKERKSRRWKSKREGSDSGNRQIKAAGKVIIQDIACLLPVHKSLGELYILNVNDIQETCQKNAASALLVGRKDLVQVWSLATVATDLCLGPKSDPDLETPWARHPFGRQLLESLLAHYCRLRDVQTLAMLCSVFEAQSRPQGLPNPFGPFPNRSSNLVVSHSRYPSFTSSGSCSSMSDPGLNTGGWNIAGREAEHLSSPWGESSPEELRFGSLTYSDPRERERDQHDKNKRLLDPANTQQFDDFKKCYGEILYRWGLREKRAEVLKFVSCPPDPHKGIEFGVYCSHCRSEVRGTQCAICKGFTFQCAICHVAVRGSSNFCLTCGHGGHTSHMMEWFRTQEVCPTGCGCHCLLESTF
Chain of CASTOR1 homodimer-GATOR2 complex (Q96EE3 whole entry partner): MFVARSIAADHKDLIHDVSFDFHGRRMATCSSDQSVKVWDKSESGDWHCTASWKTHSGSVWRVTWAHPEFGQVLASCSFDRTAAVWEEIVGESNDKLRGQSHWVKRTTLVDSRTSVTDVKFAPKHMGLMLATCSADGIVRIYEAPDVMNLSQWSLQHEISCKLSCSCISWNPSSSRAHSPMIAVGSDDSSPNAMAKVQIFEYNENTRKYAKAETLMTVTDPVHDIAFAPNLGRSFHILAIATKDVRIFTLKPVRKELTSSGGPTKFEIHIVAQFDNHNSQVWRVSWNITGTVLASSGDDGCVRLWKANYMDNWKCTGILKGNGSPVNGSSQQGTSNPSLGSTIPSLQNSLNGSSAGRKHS
Chain of CASTOR1 homodimer-GATOR2 complex (P55735 2-322 partner): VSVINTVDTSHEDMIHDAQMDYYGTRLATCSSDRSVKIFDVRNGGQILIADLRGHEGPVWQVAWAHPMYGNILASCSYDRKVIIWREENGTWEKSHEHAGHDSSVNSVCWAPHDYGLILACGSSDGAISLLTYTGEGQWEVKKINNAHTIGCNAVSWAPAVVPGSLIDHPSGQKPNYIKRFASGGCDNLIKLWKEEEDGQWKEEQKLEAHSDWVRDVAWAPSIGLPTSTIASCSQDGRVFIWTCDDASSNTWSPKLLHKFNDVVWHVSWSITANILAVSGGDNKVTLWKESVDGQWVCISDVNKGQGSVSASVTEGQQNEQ

For N=C(N)NCCC[C@H](N)C(=O)O [arginine], which IC50 [1] is on record?
Its IC50 is 20 to 40 µM.

And the IC50 [2]?
Its IC50 is 20 to 40 µM.
